Results from patent US9504671B2, “Pharmaceutical compositions of spiro-oxindole compound for topical administration and their use as therapeutic agents” (Xenon Pharmaceuticals Inc., priority 2010, dated 2016).
Values joined by “and” are separate entries in the source; they are usually repeats but may differ in a detail not shown here. Equal entries are not always repeated.

Legend:
[1] = test system: CCI neuropathic pain model; experiment: efficacy of topical versus oral administration, Chronic Constriction Injury, von Frey; format: in vivo, male Sprague Dawley rats; conditions: p<0.001 vs vehicle
Source text: The Chronic Constriction Injury (CCI) model, an established neuropathic pain model in the rat, is used in this study to compare the levels of efficacy and systemic exposure of COMPOUND A between the topical and oral administration in male rats.
A peripheral neuropathy was induced in rats by placing loose constrictive ligatures around the common sciatic nerve as described by Bennett G J, and Xie Y-K., Pain, (1988) 33: pp. 87-107. Eight-week old male Sprague Dawley rats were anaesthetized with 3.5% isoflurane, and a 3 cm incision was made through the skin and fascia at the mid-thigh level of the animal's left hind leg using a no. 10 scalpel blade. […]
A painful neuropathy was allowed to develop in the ipsilateral leg as determined by lower paw withdrawal thresholds to a mechanical stimulus. Only those with significant hyperalgesia as determined by reduced threshold, measured in grams, to paw withdrawal to the von Frey filament were enrolled in the study.
The paw withdrawal thresholds of animals from mechanical tactile stimuli were measured using the Model 2290 Electrovonfrey anesthesiometer (IITC Life Science, Woodland Hills, Calif.). […] After 15 minutes of accommodation in this enclosure, a von Frey hair was applied perpendicularly to the plantar surface of the ipsilateral hind paws of the animals, with sufficient force, measured in grams, to elicit a crisp response of the paw. […]

[2] = test system: CFA-induced inflammatory pain model; experiment: CFA induced chronic inflammatory pain, von Frey mechanical paw withdrawal threshold; format: in vivo, rats; conditions: fourth day, 30 minutes post-dosing
Experimental: In this test, mechanical hyperalgesia is assessed with electronic von Frey filament by means of Electrovonfrey anesthesiometer (Model 2290, IITC Life Science, Woodland Hills, Calif.). Following a full week of acclimatization to the vivarium facility, 150 μL of the “Complete Freund's Adjuvant” (CFA) emulsion (CFA suspended in an oil/saline (1:1) emulsion at a final concentration of 0.5 mg/mL) was injected subcutaneously into the plantar surface of the left hind ankle joint of rats under light isoflurane anaesthesia. Animals were allowed to recover from the anaesthesia and the baseline mechanical nociceptive thresholds of all animals were assessed one week after the administration of CFA. All animals were habituated to the experimental chambers for 20 minutes on the day of the experiment. The animals were then randomly assigned to 5 different test groups including a vehicle control group and 4 pharmaceutical compositions with COMPOUND A at 1%, 2%, 4% and 8% (w/w) groups. After baseline measurements, animals were anaesthetized under isoflurane, shaved at the site of application, and then dosed by application of 50 mg test compositions on the entire ipsilateral hind ankle and foot. Animals were then placed in Plexiglas tubes for 30 minutes to prevent early removal/ingestion of drug. Test compositions were applied twice a day for 3 days. On the fourth day, immediately after application, animals were placed in tubes for 15 minutes and then removed and placed in Plexiglas enclosures for 15 minutes prior to making paw withdrawal measurements. Von Frey withdrawal thresholds were measured as the mean of several independent determinations made within 1-2 minutes of each other on the affected paw of each animal 30 minutes post-dosing. The time point used was previously determined to show the highest analgesic effect for each test composition.
The response thresholds of animals to tactile stimuli were measured using the Model 2290 Electrovonfrey anesthesiometer (IITC Life Science, Woodland Hills, Calif.). Animals were placed in an elevated Plexiglas enclosure set on a mire mesh surface. After 15 minutes of accommodation, a von Frey hair was applied perpendicularly to the plantar surface of the ipsilateral hind paws of the animals with sufficient force, measured in grams, to elicit a crisp response of the paw. The response indicated a withdrawal from the painful stimulus and constituted the efficacy endpoint.

sodium channel = experiment: guanidine influx assay disclosed in WO 06/110917; format: cell-based; conditions: read-out: IC50, inhibition of ion flux through a sodium channel
Source text: The IC50 (“Inhibitory Concentration—50%”) is a measure of the amount of compound required to achieve 50% inhibition of ion flux through a sodium channel, over a specific time period, in an assay of the invention.

animal models = experiment: animal models, oral dosing (earlier studies); format: in vivo; conditions: oral dose of 25 mg/Kg, previous studies
Source text: For example, the mildly painful stimuli from scratching are effective in abolishing the itch sensation. In contrast, analgesics such as opioids can generate severe pruritis. The antagonistic interaction between pain and itch can be exploited in pruritis therapy, and current research concentrates on the identification of common targets for future analgesic and antipruritis therapy. […] Accordingly, COMPOUND A, as an enantiomer or a pharmaceutically acceptable salt thereof, can also be useful for treating pruritis.
Following paw withdrawal baseline measurements, animals were randomly divided into 4 different test groups (N=8 animals/group), including a vehicle control group for oral dosage, a vehicle control group for topical dosage, and two treatment groups. For the oral dosage groups, animals were dosed by oral gavages after baseline measurement. […] For the topical dosage groups, 50 mg of the test composition was applied on the ipsilateral ankle and foot. […] Von Frey withdrawal thresholds were measured as the mean of several independent determinations made within 1-2 minutes of each other on the affected paw of each animal. Withdrawal measurements were taken 60 minutes post dosing for the oral dosage group and 30 minutes post-dosing for the topical dosage group, representing their respective peak efficacy time points as determined in previous studies.

IC50 (sodium channel): < 1000 nM
SMILES: O=C1N(Cc2ccc(C(F)(F)F)o2)c2ccccc2[C@]12COc1cc3c(cc12)OCO3 [COMPOUND A, (S)-1′-{[5-(trifluoromethyl)furan-2-yl]methyl}spiro[furo[2,3-f][1,3]benzodioxole-7,3′-indol]-2′(1′H)-one]
paw withdrawal threshold, percent mean change from baseline (CFB) ([1]; 25 mg/Kg oral gavage, 60 minutes post-dosing): 44.3% and 44% | paw withdrawal threshold, percent mean change from baseline (CFB) ([1]; 8% (w/w) topical, 50 mg on ipsilateral ankle and foot, 30 minutes post-dosing): 47.1% and 47% | von Frey mechanical paw withdrawal threshold, percent CFB ([2]; 1% (w/w) topical composition): did not demonstrate an observable increase | von Frey mechanical paw withdrawal threshold, percent CFB ([2]; 2% (w/w) topical composition): statistically significant increases | von Frey mechanical paw withdrawal threshold, percent CFB ([2]; 4% (w/w) topical composition): statistically significant increases | von Frey mechanical paw withdrawal threshold, percent change from baseline (CFB) ([2]; 8% (w/w) topical composition, 50 mg twice a day for 3 days): +45.1% | von Frey mechanical paw withdrawal threshold, percent CFB ([2]; 8% (w/w) topical composition): statistically significant increases | reversal of pain response (animal models): approximately half-maximal reversal of pain response
